In publication PMC6193536 (Bioorganic & medicinal chemistry letters, 2018):
Read-outs that look alike come from different tables or passages of the source.

Experiments:
[1] = system: Plasmodium falciparum; assay: hypoxanthine incorporation assay; format: cell-based
[2] = target: T1, PfPKG (Plasmodium falciparum, UniProt Q8I719); conditions: data unpublished
[3] = system: panel of human kinases
[4] = target: T1, PfPKG; conditions: cited from earlier work
[5] = system: Plasmodium falciparum; conditions: cited from earlier work

T1 sequence (Q8I719 whole entry): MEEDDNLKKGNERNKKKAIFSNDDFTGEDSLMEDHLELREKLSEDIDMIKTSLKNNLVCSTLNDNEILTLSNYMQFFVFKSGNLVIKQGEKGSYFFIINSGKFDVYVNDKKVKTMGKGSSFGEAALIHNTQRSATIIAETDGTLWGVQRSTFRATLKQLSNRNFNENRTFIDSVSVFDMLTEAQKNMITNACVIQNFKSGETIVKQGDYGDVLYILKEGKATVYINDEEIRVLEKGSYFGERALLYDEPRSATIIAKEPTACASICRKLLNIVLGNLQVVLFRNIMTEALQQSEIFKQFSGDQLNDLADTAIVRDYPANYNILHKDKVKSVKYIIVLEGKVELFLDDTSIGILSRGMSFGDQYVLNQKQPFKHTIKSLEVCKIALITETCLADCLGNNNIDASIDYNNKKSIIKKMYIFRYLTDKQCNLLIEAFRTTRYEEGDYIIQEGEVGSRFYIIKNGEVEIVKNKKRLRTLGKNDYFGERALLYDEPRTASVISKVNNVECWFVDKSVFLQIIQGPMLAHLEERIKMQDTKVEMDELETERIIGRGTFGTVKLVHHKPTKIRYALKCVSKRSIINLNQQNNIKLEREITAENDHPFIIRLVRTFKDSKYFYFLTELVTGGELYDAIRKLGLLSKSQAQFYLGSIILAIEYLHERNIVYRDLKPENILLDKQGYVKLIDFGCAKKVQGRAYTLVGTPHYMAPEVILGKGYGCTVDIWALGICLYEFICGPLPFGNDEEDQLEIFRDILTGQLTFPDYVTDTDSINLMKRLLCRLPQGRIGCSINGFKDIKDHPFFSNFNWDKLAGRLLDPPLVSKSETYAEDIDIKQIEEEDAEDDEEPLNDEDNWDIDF

SMILES: CN1CCC(c2cc(-c3ccncc3)c(-c3ccc(F)cc3)[nH]2)CC1 [compound 1]
- potency in HXI cell viability assay ([1]; data unpublished): moderate potency
- potency in biochemical assay against PfPKG [2]: low nanomolar potencies
- kinase selectivity (other human kinases) [3]: poor kinase selectivity

SMILES: CN(C)Cc1ccn2c(-c3ccnc(N)n3)c(-c3ccc(F)cc3)nc2c1 [compound 2]
- potency in biochemical assay against PfPKG [4]: low nanomolar potencies
- potency in HXI cell viability assay [5]: moderate potency

SMILES: CN1CCC(c2nc(-c3ccc(F)c(NS(C)(=O)=O)c3)c(-c3ccnc(NCC4CC4)n3)s2)CC1 [compound 23]
- improvement in cellular potency over compound 1 ([1]; versus compound 1): 4 fold
